In paper PMC12741935 (Alzheimer's & Dementia, 2025):

Assays:
[1] = Body weight during chronic twice daily oral dosing of aged 5xFAD mice; format: in vivo; settings: 8- to 9-month-old 5xFAD, twice daily oral administration, within first 31 days; seen with both NVS-PAK1-1 and vehicle
Description: Serial blood was collected from n = 3 per treatment group at 0.5, 1, 2, and 4 hours post dose; with terminal blood and brain collected at 4 hours post dose. A staggered cohort of n = 3 per treatment group were assigned to serial blood collections at 0.5, 1, 2, and 8 hours post dose with terminal blood and brain collected at 4 and 24 hours post dose. Informed by exposure data from the initial PK/PD study, a subsequent chronic PK/PD study was designed to evaluate twice daily treatment of 100 mg/kg (PO) in female and male 5xFAD mice compared to age‐ and sex‐matched vehicle‐treated 5xFAD and vehicle‐treated WT littermate controls (Table S2 in supporting information). Terminal blood and brain was collected at 4 hours after the final dose. […] All in vivo target engagement and PK/PD studies were conducted under blinded conditions for age, genotype, and treatment, and the blind was maintained until after analyses were conducted.
Drug concentrations were prepared immediately before dosing each day. The dose volume was delivered at 10 mL/kg based on each subject's daily weight collected just prior to the morning dose and administered via PO. For the chronic PD study, twice daily dosing (BID) was conducted between 7:00 and 9:00 am each morning and 3:00 to 5:00 pm each evening with the same day's formulation stored at 4°C between dosing intervals.

[2] = system: 14 DIV hippocampal neurons; test: oAβ-induced dendrite degeneration (MAP2 dendrite length, number, complexity) in cultured hippocampal neurons; format: cell-based, mouse
Description: (§1) For in vitro study, all animal procedures were conducted in accordance with the National Institutes of Health Guide for the Care and Use of Laboratory Animals using protocols approved by the institutional animal care and use committee at Stanford University. Timed pregnant C57BL/6 mice (Strain code: 027) were purchased from Charles River Laboratories and delivered on embryonic day 15 (E15), after which E16 embryos were used for primary hippocampal cultures. Primary embryonic mouse hippocampal neuron cultures were plated on poly‐D‐lysine‐coated (10 µg/mL) glass cover slips at 40,000 to 50,000 cells per well in 12‐well plates (Corning Life Sciences). Cells were seeded in plating medium DMEM/F12 supplemented with 10% fetal bovine serum and 1 × penicillin/streptomycin (PS) for 2 hours. Medium was then changed to B‐27 Plus Neuronal Culture System (Invitrogen) supplemented with PS, and 2 mM glutamine.
(§2) Immunofluorescence was performed as described previously.[24] Briefly, cultured hippocampal neurons were fixed in 4% formaldehyde for 20 minutes, permeabilized for 6 minutes in 80% ice‐cold methanol, and incubated with primary antibodies at 4°C overnight. Primary antibodies used were rabbit polyclonal MAP2 antibody for labeling dendrites (1:1000, #8707, Cell Signaling) and mouse monoclonal drebrin antibody for labeling dendritic spines (1:300; Cat#ADI‐NBA‐110, Enzo). Secondary antibodies consisted of donkey antirabbit or antimouse conjugated with either FITC or Cy3 (1:400; Jackson ImmunoResearch Laboratories, Inc.).
The cultured hippocampal neurons were imaged using an oil‐based 63x objective on a Leica Stellaris 5 confocal microscope. The cell nucleus was stained with DAPI and imaged at a wavelength of 405 nm (blue channel), the dendrites stained by MAP2 were imaged at 488 nm wavelength (green channel), and the drebrin‐stained spines were imaged at a wavelength of 561 nm (red channel). Z‐stack images of neurons were acquired at a 1024 × 1024 resolution, a zoom factor of 1.0, and a z‐step size of 0.5 µm. The number of steps for every z‐stack picture of a neuron were determined by the size of the neuron in the z‐plane, to ensure that the entirety of a neuron is captured in the picture. The areas to be imaged were selected systematically, starting from the top‐left region to proceeding to the bottom‐right region of a coverslip. For imaging, preference was given to field of views containing isolated neurons versus clustered neurons.
For quantification of drebrin‐positive spines in vitro, the images were analyzed using Imaris 9.3 software. Each image consisted of one major neuron and the “filaments” option in Imaris was applied to manually trace along the dendrites of every neuron, by placing starting and seed points at the beginning and along the length of the dendrites, respectively. The largest dendrite diameter (i.e., Starting Point) was set at 9.00 µm threshold while the thinnest dendrite diameter (i.e., Seed Point) was set at 1.00 µm threshold. After manually tracing the dendrites, the spines along the dendrites were assessed using the automatic “spine detection” function in Imaris. The thinnest spine diameter was set at 0.80 µm threshold while the maximum spine length was set at 5.00 µm. The spine density (number of spines/dendrite length) was then calculated for each neuron. All image acquisition and quantification were performed in a blind manner. For in vitro quantification of dendrite degeneration, Neurolucida (MBF Biosciences) in the manual mode was used to measure the total dendritic length, numbers of dendrites, and dendritic complexity for each neuron.

[3] = system: dendritic spines, layer V of somatosensory cortex; test: Golgi staining, dendritic spine density in somatosensory cortex of 5xFAD mice; format: in vivo
Description: Drug concentrations were prepared immediately before dosing each day. […] The right hemisphere was subjected to Golgi staining as described previously[29] to assess dendrite morphology and dendritic spine density. Briefly, frozen mice brains were rapidly immersed in a modified Golgi-Cox staining solution (developed and provided by […] Jing and Francis Lee, Cornell University) for 9 days at room temperature in the dark. The brains were then incubated in 30% sucrose in dH2O at 4°C for 72 hours, with the solution refreshed after the first 12 hours. Next, 150 μm sections were prepared using a vibratome and mounted onto slides coated with 0.3% gelatin. After a brief drying period, slides were dipped three times in 40% sucrose and air dried for 72 hours in the dark. After dH2O washes, sections were developed using a staining solution, rinsed again, dehydrated through a graded ethanol series, cleared in xylene, and cover slipped with DPX mounting medium. Brain sections stained using the Golgi-Cox method were imaged with a Zeiss brightfield microscope equipped with the Neurolucida software (MBF Biosciences). The Neurolucida software was used to acquire neuron pictures, trace neuronal dendrites, and quantify dendritic spine density. […] After a neuron was selected, the 100 × oil immersion objective was used to perform real time dendritic tracing using Neurolucida's live mode. The soma was outlined using the “cell body” option followed by manual tracing of apical and basal dendrites using the respective “dendrite tracing” options. After the tracing was finished, spines were manually marked along the dendrites. A.DAT file was saved for each neuron post completion of dendrite and spine tracing and imported into Neurolucida Explorer, which is used to perform quantitative structural analysis and dendrite length and number of spines data for each neuron is exported. The spine density is calculated by dividing number of spines/dendrite length separately for apical and basal dendrites for each neuron.

[4] = system: kinome; broad panel of proteases, receptors, and bromodomains; settings: cited from earlier work
[5] = system: 14 DIV mouse hippocampal neurons; test: oTau-induced spine loss: drebrin-positive spine density in cultured hippocampal neurons; format: cell-based; settings: oTau 50 nM + inhibitor 24 h vs oTau alone; NVS-PAK1-1 10 nM, NVS-PAK1-C 10 nM, AZ13705339 1 nM, G5555 5 nM
Description: as §1, §2
The cultured hippocampal neurons were imaged using an oil‐based 63x objective on a Leica Stellaris 5 confocal microscope. The cell nucleus was stained with DAPI and imaged at a wavelength of 405 nm (blue channel), the dendrites stained by MAP2 were imaged at 488 nm wavelength (green channel), and the drebrin‐stained spines were imaged at a wavelength of 561 nm (red channel). […] The number of steps for every z‐stack picture of a neuron were determined by the size of the neuron in the z‐plane, to ensure that the entirety of a neuron is captured in the picture. […]
For quantification of drebrin‐positive spines in vitro, the images were analyzed using Imaris 9.3 software. […] After manually tracing the dendrites, the spines along the dendrites were assessed using the automatic “spine detection” function in Imaris. […] The spine density (number of spines/dendrite length) was then calculated for each neuron. All image acquisition and quantification were performed in a blind manner. For in vitro quantification of dendrite degeneration, Neurolucida (MBF Biosciences) in the manual mode was used to measure the total dendritic length, numbers of dendrites, and dendritic complexity for each neuron.

[6] = young male 5xFAD, 100 mg/kg BID PO 12 weeks

For `CC(C)NC(=O)N1CC[C@H](NC2=Nc3cc(F)ccc3N(CC(F)F)c3ccc(Cl)cc32)C1` [NVS‐PAK1‐1, (S)‐3‐([2‐chloro‐5‐(2,2‐difluoroethyl)‐8‐fluoro‐5H‐dibenzo[b,e][1,4]diazepin‐11‐yl]amino)‐N‐isopropylpyrrolidine‐1‐carboxamide], the weight loss [1] was “≈ 20%”, the dendritic complexity ([2]; oAβ 1 µM + 10 nM, 24 h, vs oAβ alone) was “preservation of complexity” and the “dendrite number per neuron” value ([2]; oAβ 1 µM + inhibitor 24 h vs oAβ alone, NVS-PAK1-1 10 nM, AZ 1 nM, G 5 nM) was “significantly increased dendrite number per neuron”. For the same molecule, the “total dendrite length per neuron” value ([2]; oAβ 1 µM + inhibitor 24 h vs oAβ alone, NVS-PAK1-1 10 nM, PAK1-C 10 nM, AZ 1 nM, G 5 nM) was “preserved dendrite length”, the “apical dendritic spine density, somatosensory cortex” value ([3]; female 5xFAD, 100 mg/kg BID PO 12 weeks from 3 to 6 months of age, P < 0.01) was “prevented the loss” and the “basal dendritic spine density, somatosensory cortex” value ([3]; female 5xFAD, 100 mg/kg BID PO 12 weeks from 3 to 6 months of age, P < 0.05) was “prevented the loss”. The “apical spine density, somatosensory cortex” value [3, 6] was “no significant difference”, the “basal spine density, somatosensory cortex” value [3, 6] was “no significant difference” and the “cross-reactivity with a broad panel of proteases, receptors, and bromodomains” value [4] was “no significant cross‐reactivity”. The “drebrin-stained spine density (spine counts per µm of dendritic length)” value [5] was “significantly higher spine counts”.
